Experimental data published in ChEMBL document CHEMBL1201862, “PubChem BioAssay data set” (2004).
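Protocol summary: plate cells (96-well), add compound at 5 concentrations, incubate 48 h, interpolate endpoints linearly. Here, GI50 denotes the concentration required for 50% inhibition of growth.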 Activity calls are given as the source filed them. Cut-off read from the data, not from the text of the source: active = GI50 up to about 1.1 µM and inactive = higher. Where a SMILES comes first, the peptide text is derived from it. [ ]: non-standard residue; d: D form. Ac5c = NC1(C(=O)O)CCCC1

What was measured:
Test in all cases: inhibition of tumour cell growth, NCI panel, 48 h
COLO 205 = tested on: COLO 205
EKVX = tested on: EKVX
HOP-62 = tested on: HOP-62
Hs-578T = tested on: Hs-578T
IGROV-1 = tested on: IGROV-1
M14 = tested on: M14
MCF7 = tested on: MCF7
MDA-N = tested on: MDA-N
MOLT-4 = tested on: MOLT-4
NCI-H226 = tested on: NCI-H226
NCI-H23 = tested on: NCI-H23
OVCAR-4 = tested on: OVCAR-4
OVCAR-8 = tested on: OVCAR-8
RPMI-8226 = tested on: RPMI-8226
RXF 393 = tested on: RXF 393
SK-MEL-5 = tested on: SK-MEL-5
SN12C = tested on: SN12C
SNB-75 = tested on: SNB-75
SR = tested on: SR
T47D = tested on: T47D

Measured: GI50

NC1(C(=O)NC2(C(=O)O)CCCC2)CCCC1 (H-[Ac5c]-[Ac5c]-OH)
inactive: COLO 205 > 100 µM | EKVX > 100 µM | HOP-62 > 100 µM | Hs-578T > 100 µM | IGROV-1 > 100 µM | M14 > 100 µM | MCF7 > 100 µM | MDA-N > 100 µM | MOLT-4 > 100 µM | NCI-H226 > 100 µM | NCI-H23 > 100 µM | OVCAR-4 > 100 µM | OVCAR-8 > 100 µM | RPMI-8226 > 100 µM | RXF 393 > 100 µM | SK-MEL-5 > 100 µM | SN12C > 100 µM | SNB-75 > 100 µM | SR > 100 µM | T47D > 100 µM
